Holding throughout (format): in vivo
Test [1] concerns Beet Armyworm (Spodoptera exigua, LAPHEG). Nature of the test: Bioassays on Beet Armyworm (BAW), 128-well diet tray assay. As to conditions: Spodoptera exigua. In outline:
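Mortality of second-instar larvae (1–5/well) on artificial diet treated with 50 μg/cm^2 compound, read after 5–7 days at 25° C.; values are means of eight wells.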

Test [2] has as its system Cabbage Looper (Trichoplusia ni, TRIPNI). The test is described as follows: Bioassays on Cabbage Looper (CL), 128-well diet tray assay. To be noted: Trichoplusia ni. In outline:
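Each of eight wells receives artificial diet treated at 50 μg/cm^2 with the test molecule, then one to five second-instar larvae. Incubation runs five to seven days at 25° C with a 14:10 light-dark cycle under vented covers. Mortality is scored per well as a percentage and averaged.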

Test [3] concerns Yellow Fever Mosquito (Aedes aegypti, AEDSAE). To be noted: for YFM rating: Table ABC / ABC-DP rating. In outline: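 Rating-scale grades reflect larval mortality scored per well after 3 days at room temperature under non-evaporative lids. Larvae (~1 day old, hatched overnight in liver-powder water) were added to six daughter plates per compound, prepared from a 4000 ppm DMSO stock diluted in 90:10 water/acetone.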

Setting [4] is: Table ABC: Biological Results, species BAW, read-out: BAW.
Where [5] appears, read: Table ABC: Biological Results, species CL, read-out: CL.
The mark [6] stands for this setting: Table ABC: Biological Results, species YFM.
[7] abbreviates: Beet Armyworm, Table ABC / ABC-DP rating, read-out: BAW rating.
[8] abbreviates: Cabbage Looper, Table ABC / ABC-DP rating, read-out: CL rating.
The mark [9] stands for this setting: Beet Armyworm, rating class, read-out: BAW.
Setting [10] is: Cabbage Looper, rating class, read-out: CL.
Setting [11] is: Yellow Fever Mosquito, rating class.

Where two headings read alike, the source gives them in different places.

As for `CCOCC(=O)Nc1c(F)ccc(NC(=O)c2cc(NC(=O)[C@H]3[C@H](c4ccc(F)c(C(F)(F)F)c4)C3(Cl)Cl)ccc2Cl)c1F` [F1363, 2-Chloro-5-((1R,3R)-2,2-dichloro-3-(4-fluoro-3-(trifluoromethyl)phenyl)cyclopropane-1-carboxamido)-N-(3-(2-ethoxyacetamido)-2,4-difluorophenyl)benzamide], the pest or weed control at 50 µg/cm2 in test [1] (setting [4]) and in test [2] (setting [5]) was 50 to 100% in each case. The YFM result in test [3] (setting [6]) is recorded as “A (80–100)”.
As for `O=C(/C=C/C(F)(F)F)Nc1c(F)ccc(NC(=O)c2cc(NC(=O)[C@H]3[C@H](c4ccc(F)c(C(F)(F)F)c4)C3(Cl)Cl)ccc2Cl)c1F` [F1869, 2-Chloro-5-((1R,3R)-2,2-dichloro-3-(4-fluoro-3-(trifluoromethyl)phenyl)cyclopropane-1-carboxamido)-N-(2,4-difluoro-3-((E)-4,4,4-trifluorobut-2-enamido)phenyl)benzamide], the pest or weed control at 50 µg/cm2 in test [1] (setting [7]) and in test [2] (setting [8]) was 50 to 100% throughout. Moreover, the YFM rating entry in test [3] (Yellow Fever Mosquito) was “A (80–100)”.
As to `O=C(CC(F)(F)F)Nc1c(F)ccc(NC(=O)c2cc(NC(=O)[C@H]3[C@H](c4cccc(C(F)(F)F)c4)C3(Cl)Cl)ccc2Cl)c1F` [F1738, 2-Chloro-5-((1R,3R)-2,2-dichloro-3-(3-(trifluoromethyl)phenyl)cyclopropane-1-carboxamido)-N-(2,4-difluoro-3-(3,3,3-trifluoropropanamido)phenyl)benzamide], the pest or weed control at 50 µg/cm2 in test [1] (setting [9]) and in test [2] (setting [10]) was 50 to 100% in each case. Moreover, the YFM entry in test [3] (setting [11]) is “A (80–100)”.
For the compound `Cc1cc([C@H]2[C@H](C(=O)Nc3ccc(Cl)c(C(=O)NCC(F)(F)F)c3)C2(Cl)Cl)cc(C(F)(F)F)c1F` (relative stereo) [F2014, trans-2-Chloro-5-(2,2-dichloro-3-(4-fluoro-3-methyl-5-(trifluoromethyl)phenyl)-cyclopropane-1-carboxamido)-N-(2,2,2-trifluoroethyl)benzamide], the pest or weed control at 50 µg/cm2 in test [1] (setting [7]) and in test [2] (setting [8]) was 50 to 100% each time. Also, the YFM rating result in test [3] (Yellow Fever Mosquito) is on record as “A (80–100)”.
In the case of `CCOC(=O)C(F)C(=O)Nc1c(F)ccc(NC(=O)c2cc(NC(=O)[C@H]3[C@H](c4ccc(F)c(C(F)(F)F)c4)C3(Cl)Cl)ccc2Cl)c1F` (stereo partly drawn) [F1822, Ethyl 3-((3-(2-chloro-5-((1R,3R)-2,2-dichloro-3-(4-fluoro-3-(trifluoromethyl)phenyl)cyclopropane-1-carboxamido)benzamido)-2,6-difluorophenyl)amino)-2-fluoro-3-oxopropanoate], the pest or weed control at 50 µg/cm2 in test [1] (setting [7]) and in test [2] (setting [8]) was 50 to 100% each time. Further, in test [3] (Yellow Fever Mosquito), the YFM rating entry is listed as “A (80–100)”.
On to `CC(C)(C)OC(=O)Nc1c(F)ccc(NC(=O)c2cc(NC(=O)[C@H]3[C@H](c4ccc(F)c(C(F)(F)F)c4)C3(Cl)Cl)ccc2Cl)c1F` (relative stereo) [F1078, trans-tert-Butyl-(3-(2-chloro-5-(2,2-dichloro-3-(4-fluoro-3-(trifluoromethyl)phenyl)cyclopropane-1-carboxamido)benzamido)-2,6-difluorophenyl)carbamate], for which the pest or weed control at 50 µg/cm2 in test [1] (setting [4]) and in test [2] (setting [5]) was 50 to 100% in each case. Also, the YFM result in test [3] (setting [6]) is “A (80–100)”.
`C=Cc1c(F)ccc(NC(=O)c2cc(NC(=O)[C@H]3[C@H](c4cc(Cl)cc(Cl)c4)C3(Cl)Cl)ccc2Cl)c1F` (relative stereo) [F1314, trans-2-Chloro-5-(2,2-dichloro-3-(3,5-dichlorophenyl)cyclopropane-1-carboxamido)-N-(2,4-difluoro-3-vinylphenyl)benzamide]: the pest or weed control at 50 µg/cm2 in test [1] (setting [4]) and in test [2] (setting [5]) was 50 to 100% each time. For the same compound, the YFM result in test [3] (setting [6]) was “A (80–100)”.
Consider `O=C(NCC(F)(F)F)c1cc(NC(=O)[C@H]2[C@H](c3cc(C(F)(F)F)ccc3Cl)C2(Cl)Cl)ccc1Cl` (relative stereo) [F2001, trans-2-Chloro-5-(2,2-dichloro-3-(2-chloro-5-(trifluoromethyl)phenyl)-cyclopropane-1-carboxamido)-N-(2,2,2-trifluoroethyl)benzamide], for which the pest or weed control at 50 µg/cm2 in test [1] (setting [7]) and in test [2] (setting [8]) was 50 to 100% each time. The YFM rating result in test [3] (Yellow Fever Mosquito) was “A (80–100)”.
For `O=C(Nc1ccc(F)c(NC(=O)C(F)(F)F)c1)c1cc(NC(=O)[C@H]2[C@H](c3ccc(Cl)c(Cl)c3)C2(Cl)Cl)ccc1Cl` [F1812, 2-Chloro-5-((1R,3R)-2,2-dichloro-3-(3,4-dichlorophenyl)cyclopropane-1-carboxamido)-N-(4-fluoro-3-(2,2,2-trifluoroacetamido)phenyl)benzamide], the pest or weed control at 50 µg/cm2 in test [1] (setting [7]) and in test [2] (setting [8]) was 50 to 100% each time. For the same compound, the YFM rating entry in test [3] (Yellow Fever Mosquito) is listed as “B (More than 0 – Less than 80)”.
`Nc1c(F)ccc(NC(=O)c2cc(NC(=O)[C@H]3[C@H](c4ccc(S(F)(F)(F)(F)F)cc4)C3(Cl)Cl)ccc2Cl)c1F` (relative stereo) [F1142, trans-N-(3-Amino-2,4-difluorophenyl)-2-chloro-5-(2,2-dichloro-3-(4-(pentafluoro-λ^6-sulfanyl)phenyl)cyclopropane-1-carboxamido)benzamide]: the pest or weed control at 50 µg/cm2 in test [1] (setting [4]) and in test [2] (setting [5]) was 50 to 100% each time. In test [3] (setting [6]), the YFM entry is listed as “A (80–100)”.
Consider `O=C(NNC(=O)c1cc(NC(=O)[C@H]2[C@H](c3cc(Cl)cc(Cl)c3)C2(Cl)Cl)ccc1Cl)c1ccccc1` (relative stereo) [F2519, trans-N-(3-(2-Benzoylhydrazine-1-carbonyl)-4-chlorophenyl)-2,2-dichloro-3-(3,5-dichlorophenyl)cyclopropane-1-carboxamide], for which the pest or weed control at 50 µg/cm2 in test [1] (setting [7]) and in test [2] (setting [8]) was 50 to 100% in each case. For the same compound, in test [3] (Yellow Fever Mosquito), the YFM rating entry is on record as “A (80–100)”.
Regarding `Nc1c(F)ccc(NC(=O)c2cc(NC(=O)[C@H]3[C@H](c4cc(F)cc(C(F)(F)F)c4)C3(Cl)Cl)ccc2Cl)c1F` [F1687, N-(3-Amino-2,4-difluorophenyl)-2-chloro-5-((1R,3R)-2,2-dichloro-3-(3-fluoro-5-(trifluoromethyl)phenyl)cyclopropane-1-carboxamido)benzamide], the pest or weed control at 50 µg/cm2 in test [1] (setting [9]) and in test [2] (setting [10]) was 50 to 100% throughout. Also, the YFM entry in test [3] (setting [11]) was “A (80–100)”.
With `O=C(Nc1ccc(F)cc1F)c1cc(NC(=O)[C@H]2[C@H](c3ccc(F)c(Cl)c3F)C2(Cl)Cl)ccc1Cl` (relative stereo) [F1034, trans-2-Chloro-5-(2,2-dichloro-3-(3-chloro-2,4-difluorophenyl)cyclopropane-1-carboxamido)-N-(2,4-difluorophenyl)benzamide], the pest or weed control at 50 µg/cm2 in test [1] (setting [4]) and in test [2] (setting [5]) was 50 to 100% in each case. In test [3] (setting [6]), the YFM result is on record as “A (80–100)”.
Turning to `O=C(Nc1ccc(F)cc1F)c1cc(NC(=O)[C@H]2[C@H](c3cc(F)c(F)c(Br)c3)C2(Cl)Cl)ccc1Cl` (relative stereo) [F1011, trans-5-(3-(3-Bromo-4,5-difluorophenyl)-2,2-dichlorocyclopropane-1-carboxamido)-2-chloro-N-(2,4-difluorophenyl)benzamide], the pest or weed control at 50 µg/cm2 in test [1] (setting [4]) and in test [2] (setting [5]) was 50 to 100% in each case. Besides, the YFM entry in test [3] (setting [6]) was “A (80–100)”.
For `Cc1c(NC(=O)c2cc(NC(=O)[C@H]3[C@H](c4ccc(F)c(C(F)(F)F)c4)C3(Cl)Cl)ccc2Cl)ccc(Br)c1N` [F1690, N-(3-Amino-4-bromo-2-methylphenyl)-2-chloro-5-((1R,3R)-2,2-dichloro-3-(4-fluoro-3-(trifluoromethyl)phenyl)cyclopropane-1-carboxamido)benzamide], the pest or weed control at 50 µg/cm2 in test [1] (setting [9]) and in test [2] (setting [10]) was 50 to 100% throughout. In addition, the YFM result in test [3] (setting [11]) is reported as “A (80–100)”.
With `O=C(Nc1ccc(F)c(NC(=O)C(F)F)c1F)c1cc(NC(=O)[C@H]2[C@H](c3cc(Cl)cc(Cl)c3)C2(Cl)Cl)cc(F)c1F` [F1440, 5-((1R,3R)-2,2-Dichloro-3-(3,5-dichlorophenyl)cyclopropane-1-carboxamido)-N-(3-(2,2-difluoroacetamido)-2,4-difluorophenyl)-2,3-difluorobenzamide], the pest or weed control at 50 µg/cm2 in test [1] (setting [9]) and in test [2] (setting [10]) was 50 to 100% in each case. The YFM result in test [3] (setting [11]) is “A (80–100)”.
As for `CN(C(=O)CC#N)c1c(F)ccc(NC(=O)c2cc(NC(=O)[C@H]3[C@H](c4ccc(F)c(C(F)(F)F)c4)C3(Cl)Cl)ccc2Cl)c1F` [F1752, 2-Chloro-N-(3-(2-cyano-N-methylacetamido)-2,4-difluorophenyl)-5-((1R,3R)-2,2-dichloro-3-(4-fluoro-3-(trifluoromethyl)phenyl)cyclopropane-1-carboxamido)benzamide], the pest or weed control at 50 µg/cm2 in test [1] (setting [9]) and in test [2] (setting [10]) was 50 to 100% each time. The YFM result in test [3] (setting [11]) is “A (80–100)”.

Source of the values: patent publication US20250228239A1, “MOLECULES HAVING PESTICIDAL UTILITY, AND INTERMEDIATES, COMPOSITIONS, AND PROCESSES, RELATED THERETO” (priority 2024, published 2025).
